In patent US6737383B1, “Herbicidal oxadiazolidines” (priority 1999, dated 2004):

How the values were obtained:
blackgrass = assay: Test B pre/postemergence blackgrass; type: in vivo, Alopecurus myosuroides
In short: (§1)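 Response is a visual 0-to-10 score relative to untreated plants, where 0 means no effect and 10 means complete control, taken twelve to sixteen days after application. Treatments went onto soil at planting and onto foliage of 1- to 4-leaf plants, using a surfactant-containing non-phytotoxic solvent.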

bedstraw = assay: Test B pre/postemergence bedstraw; type: in vivo, Galium aparine
In short: as §1

surinam grass = assay: Test B pre/postemergence surinam grass; type: in vivo, Brachiaria decumbens
In short: as §1

soybean = assay: Test B pre/postemergence soybean; type: in vivo, Glycine max
In short: as §1

giant foxtail = assay: Test B pre/postemergence giant foxtail; type: in vivo, Setaria faberii
In short: as §1

morningglory = assay: Test B pre/postemergence morningglory; type: in vivo, Ipomoea hederacea
In short: as §1

smallflower flatsedge = assay: Test B flood test smallflower flatsedge; type: in vivo, Cyperus difformis
In short: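 Read-out is a visual response score from 0 (no effect) to 10 (complete control), assigned by comparison with untreated controls. Treatment was applied at the 2-leaf stage, and plants stayed in the greenhouse for twelve to sixteen days before scoring.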

wheat = assay: Test B pre/postemergence wheat; type: in vivo, Triticum aestivum; settings: for Plant response rating, Wheat: Rate 250 g/ha
In short: as §1

[1] = Postemergence, Rate 125 g/ha, scale of 0 to 10 where 0 is no effect and 10 is complete control
[2] = Postemergence, Rate 250 g/ha, scale 0 to 10, 0 no effect, 10 complete control
[3] = Preemergence, Rate 62 g/ha, scale 0 to 10 (0 no effect, 10 complete control)
[4] = Preemergence, Rate 125 g/ha, scale 0 to 10 (0 no effect, 10 complete control)
[5] = Preemergence, Rate 250 g/ha, scale of 0 to 10 where 0 is no effect and 10 is complete control
[6] = Preemergence, Rate 500 g/ha, scale 0 to 10 (0 no effect, 10 complete control)
[7] = Rate 62 g/ha, Postemergence, scale of 0 to 10 where 0 is no effect and 10 is complete control
[8] = Rate 500 g/ha, Postemergence, scale 0 to 10, 0 no effect, 10 complete control
[9] = Postemergence, Rate 62 g/ha, scale 0 to 10, 0 is no effect, 10 is complete control
[10] = Rate 125 g/ha, Postemergence, scale 0 to 10, 0 no effect, 10 complete control

C=CCn1c(=O)on(C(=O)N(c2ccc(Cl)cc2)C(C)C)c1=O [Compound 105]
Blackgrass plant response rating (blackgrass; [1]): 6
Blackgrass plant response rating (blackgrass; [2]): 7
Blackgrass plant response rating (blackgrass; [3]): 5
Plant response rating, Blackgrass (blackgrass; [4]): 7
Plant response rating, Blackgrass (blackgrass; [5]): 8
Blackgrass plant response rating (blackgrass; [6]): 10
Blackgrass plant response rating (blackgrass; [7]): 2
Blackgrass plant response rating (blackgrass; [8]): 8
Bedstraw plant response rating (bedstraw; [9]): 0
Bedstraw plant response rating (bedstraw; [2]): 2
Bedstraw plant response rating (bedstraw; [3]): 0
Plant response rating, Bedstraw (bedstraw; [4]): 0
Plant response rating, Bedstraw (bedstraw; [5]): 0
Bedstraw plant response rating (bedstraw; [6]): 5
Bedstraw plant response rating (bedstraw; [10]): 0
Bedstraw plant response rating (bedstraw; [8]): 3
B. signalgrass plant response rating (surinam grass; [9]): 0
B. signalgrass plant response rating (surinam grass; [2]): 3
B. signalgrass plant response rating (surinam grass; [3]): 0
Plant response rating, B. signalgrass (surinam grass; [4]): 1
Plant response rating, B. signalgrass (surinam grass; [5]): 5
B. signalgrass plant response rating (surinam grass; [6]): 10
B. signalgrass plant response rating (surinam grass; [10]): 2
B. signalgrass plant response rating (surinam grass; Rate 500 g/ha, Postemergence, scale of 0 to 10 where 0 is no effect and 10 is complete control): 3
Soybean plant response rating (soybean; [1]): 1
Soybean plant response rating (soybean; [3]): 0
Plant response rating, Soybean (soybean; [4]): 0
Plant response rating, Soybean (soybean; [5]): 0
Soybean plant response rating (soybean; [6]): 0
Soybean plant response rating (soybean; [7]): 1
Plant response rating, Soybean (soybean; Rate 250 g/ha, Postemergence, scale 0 to 10, 0 is no effect, 10 is complete control): 3
Soybean plant response rating (soybean; [8]): 6
Giant foxtail plant response rating (giant foxtail; [1]): 3
Giant foxtail plant response rating (giant foxtail; [2]): 7
Giant foxtail plant response rating (giant foxtail; [3]): 10
Plant response rating, Giant foxtail (giant foxtail; [4]): 10
Plant response rating, Giant foxtail (giant foxtail; [5]): 10
Giant foxtail plant response rating (giant foxtail; [6]): 10
Giant foxtail plant response rating (giant foxtail; [7]): 2
Giant foxtail plant response rating (giant foxtail; [8]): 8
Morningglory plant response rating (morningglory; [1]): 2
Morningglory plant response rating (morningglory; [2]): 3
Morningglory plant response rating (morningglory; [3]): 0
Plant response rating, Morningglory (morningglory; [4]): 0
Plant response rating, Morningglory (morningglory; [5]): 0
Morningglory plant response rating (morningglory; [6]): 0
Morningglory plant response rating (morningglory; [8]): 4
S. Flatsedge plant response rating (smallflower flatsedge; Postemergence (flood test species), Rate 125 g/ha, scale of 0 to 10 where 0 is no effect and 10 is complete control): 0
S. Flatsedge plant response rating (smallflower flatsedge; Pre-emergence, Rate 1000 g/ha, scale 0 to 10 (0 no effect, 10 complete control)): 0
S. Flatsedge plant response rating (smallflower flatsedge; Rate 62 g/ha, Postemergence section, flood test species, scale of 0 to 10 where 0 is no effect and 10 is complete control): 0
Plant response rating, S. Flatsedge (smallflower flatsedge; Rate 250 g/ha, Postemergence (flood test), scale 0 to 10, 0 is no effect, 10 is complete control): 0
S. Flatsedge plant response rating (smallflower flatsedge; Rate 250 g/ha, headed Pre-emergence (flood test species), scale 0 to 10 (0 no effect, 10 complete control)): 0
Plant response rating, S. Flatsedge (smallflower flatsedge; Rate 500 g/ha, headed Pre-emergence (flood test species), scale 0 to 10 (0 no effect, 10 complete control)): 0
S. Flatsedge plant response rating (smallflower flatsedge; Rate 500 g/ha, listed under Postemergence (flood test species), scale 0 to 10, 0 no effect, 10 complete control): 0
S. Flatsedge plant response rating (smallflower flatsedge; Rate 2000 g/ha, Pre-emergence (as headed), scale 0 to 10): 0
Wheat plant response rating (wheat; [1]): 0
Wheat plant response rating (wheat; [3]): 0
Wheat plant response rating (0 to 10 scale) (wheat; Preemergence, Rate 125 g/ha, 0 is no effect, 10 is complete control): 0
Plant response rating, Wheat (wheat; Preemergence, scale of 0 to 10 where 0 is no effect and 10 is complete control): 0
Wheat plant response rating (wheat; [6]): 2
Wheat plant response rating (wheat; [7]): 0
Plant response rating, Wheat (wheat; Postemergence, scale 0 to 10, 0 is no effect, 10 is complete control): 0
Wheat plant response rating (wheat; [8]): 2
